Laboratory results taken from patent US20170196175A1, “COMPOSITIONS FOR THE DELIVERY OF AGROCHEMICALS TO THE ROOTS OF A PLANT” (ADAMA MAKHTESHIM LTD., priority 2014, published 2017).

What was measured:
Solanum Nigrum = experiment: Weed development and mortality (Example 11); type: in vivo; conditions: for Weed control, unit versus spray practice: damage of weed buds from 13 days to end of trial
Source text: Weeds: 30 seeds of Solanum Nigrum per pot.
Analysis of weeds parameters: Fresh biomass, size and total area covered by weeds per pot.

[1] = Diffusion of Atrazine and Mesotrione from units submerged in free water; type: physicochemical; conditions: over 5 days
Protocol: A unit (each from the table above) was placed within a 500 cc vial. 250 cc of DI water were added. The vial was cover with punched Parafilm and stored at room temperature. After 24 hours, the free water, which didn't absorbed by the polymer, were drained and stored in a cold room. DI water at the same volume was refilled into the vial. Repeated this stage after 72 and 120 hours.

[2] = soil application studied as part of registration process, 28 DAP; cited from earlier work
[3] = Azoxystrobin content in pepper leaves (Example 12); type: in vivo
Protocol: Planting/harvesting dates: (47 days). Following harvest, unit samples from all treatments were excavated gently and were quantified for roots penetration and total root length. A core from the middle of each sample was cut and analyzed for root content. Root count in both vertical and horizontal axes and total volume were used estimating the root total length within a single unit. Total leaves biomass of each plant was analyzed to Azoxystrobin content in qualified laboratory (Bactochem, Israel).
Azoxystrobin application through the soil was studied as part of its registration process. The concentration in pepper leaves was measured over time from application. Similar Azoxystrobin concentrations in leaves were found in both commercial and current trial (tenth of ppm). […] This significant difference may inform the potential of the unit for protecting the plant for longer periods compared to current application practice.

[4] = Example 12; cited from earlier work
maize = experiment: Crop selectivity (Example 11); type: in vivo
Source text: Soil: 10 liter pots (surface area of 0.045 m^2) filled with Rehovot Sand (High sand fraction, low OM, low EC, low CEC, and High pH).
Crops: 6 maize plants per pot following herbicide application (high demand to fertilizers with selectivity).
Analysis of crop development parameters: Height and fresh biomass.

Compound	Weed control, unit versus spray practice (Solanum Nigrum)	Dose released from the new units to the surrounding free water [1]	Azoxystrobin residue in commercial leaves [2]	Azoxystrobin concentration in unit leaves ([3]; 47 DAP)	Difference in Azoxystrobin concentration in leaves between fully fertilized and no fertilizer ([3]; DAP 47)	Azoxystrobin concentration in leaves ([3]; pepper, unit and commercial trial)	DT50 [4]	Weed control, half application rate in unit versus full spray rate (Solanum Nigrum; in vivo)	Crop selectivity (crop height, color, final fresh biomass) (maize; double and fourfold doses)	Crop selectivity (crop height, color, final fresh biomass) (maize; standard dose)
CCNc1nc(Cl)nc(NC(C)C)n1 [Atrazine]	no difference between unit and spray practices	up to 10%	–	–	–	–	–	–	–	–
CO/C=C(/C(=O)OC)c1ccccc1Oc1cc(Oc2ccccc2C#N)ncn1 [Azoxystrobin]	–	–	no residue were found	effective concentrations were found	5 fold	tenth of ppm	100 to 150 days	–	–	–
CS(=O)(=O)c1ccc(C(=O)C2C(=O)CCCC2=O)c([N+](=O)[O-])c1 [Mesotrione]	significant advantages of unit over spray	up to 25%	–	–	–	–	–	more effective than full spray rate	yellowish and slight shorter (fourfold only), yet no difference was found in fresh biomass	selective
